Test results published in publication PMC4275348 (Molecular microbiology, 2014).
Substitutions are numbered along the chain they refer to. “Also recorded” adds a separate entry of the source.

What was measured:
[1] = target: WT LuxN (Vibrio campbellii, UniProt A7MRY4); details: XK847
[2] = target: LuxN (Vibrio campbellii, UniProt A7MRY4); assay type: cell-based, Vibrio harveyi; details: IC50 values measured at various concentrations of AI-1
[3] = system: Kin^off LuxN mutants; assay: Bioluminescence of V. harveyi XK006 harboring Kin^off biased luxN alleles; assay type: cell-based, Vibrio harveyi; details: 10 μM 3O-C12 HSL
[4] = system: AinR^Q204H; assay: Bioluminescence of V. harveyi XK006 harboring ainR Q204H; assay type: cell-based, Vibrio fischeri
[5] = target: T1, LuxN^L166H/N176D (Vibrio campbellii, UniProt A7MRY4, L166H/N176D); assay: Bioluminescence of V. harveyi XK006 carrying luxN L166H/N176D; assay type: cell-based, Vibrio harveyi; details: 10 μM C8 HSL
T1 sequence (A7MRY4 1-849 L166H/N176D): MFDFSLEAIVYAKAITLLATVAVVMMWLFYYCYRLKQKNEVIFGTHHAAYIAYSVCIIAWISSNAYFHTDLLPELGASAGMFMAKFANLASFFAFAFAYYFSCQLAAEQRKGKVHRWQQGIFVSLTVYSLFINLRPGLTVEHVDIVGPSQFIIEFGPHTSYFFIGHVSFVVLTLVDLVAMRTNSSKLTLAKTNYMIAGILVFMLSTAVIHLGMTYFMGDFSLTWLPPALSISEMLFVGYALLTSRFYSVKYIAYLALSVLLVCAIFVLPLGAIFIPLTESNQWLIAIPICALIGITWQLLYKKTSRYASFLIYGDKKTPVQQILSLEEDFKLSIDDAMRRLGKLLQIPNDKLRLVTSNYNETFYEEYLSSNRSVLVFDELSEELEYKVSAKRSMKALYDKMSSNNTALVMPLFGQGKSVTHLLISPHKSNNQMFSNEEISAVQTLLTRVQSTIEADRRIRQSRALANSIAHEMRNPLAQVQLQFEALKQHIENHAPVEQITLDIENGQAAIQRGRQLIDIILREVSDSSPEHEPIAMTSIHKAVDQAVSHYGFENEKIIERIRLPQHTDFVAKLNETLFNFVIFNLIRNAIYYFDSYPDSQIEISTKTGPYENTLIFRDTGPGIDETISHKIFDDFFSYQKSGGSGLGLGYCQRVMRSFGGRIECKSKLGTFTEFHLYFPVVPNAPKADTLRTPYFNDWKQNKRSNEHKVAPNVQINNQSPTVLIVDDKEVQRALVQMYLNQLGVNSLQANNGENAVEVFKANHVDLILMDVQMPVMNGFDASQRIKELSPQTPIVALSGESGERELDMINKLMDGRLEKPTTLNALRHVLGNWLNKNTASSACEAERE

[6] = system: WT AinR; assay: Bioluminescence of V. harveyi XK006 harboring WT V. fischeri ainR; assay type: cell-based, Vibrio fischeri
[7] = system: AinR Ser^203 replaced by Ile; assay: Bioluminescence of V. harveyi XK006 harboring ainR S203I; assay type: cell-based, Vibrio fischeri
[8] = target: LuxN^L166A (Vibrio campbellii, UniProt A7MRY4, L166A)
[9] = target: T2, LuxN^G147D/Y194H (Vibrio campbellii, UniProt A7MRY4, G147D/Y194H); assay: Bioluminescence of V. harveyi XK006 carrying luxN G147D/Y194H; assay type: cell-based, Vibrio harveyi; details: 10 μM C8 HSL
T2 sequence (A7MRY4 1-849 G147D/Y194H): T1 sequence (A7MRY4 1-849 L166H/N176D) with G147D, H166L, D176N, Y194H

[10] = target: luxN^L166A/H210N (Vibrio campbellii, UniProt A7MRY4, H210N/L166A); details: AHLs added at 1 μM

| SMILES | light production phenotype [1] | mechanism of antagonism [2] | inhibition of light production [3] | detection (light production) [4] | higher light compared to DMSO or 20 nM AI-1 [5] [fold] | light production ([6]; AHLs added at 1 μM) | sensitivity of the reporter ([6]; dose response (Table S3)) | detection (light production) [7] | detection (light production) [8] | induction of light production [9] [fold] | light production [10] |
| --- | --- | --- | --- | --- | --- | --- | --- | --- | --- | --- | --- |
| CCCCCCCCCC(=O)CC(=O)N[C@H]1CCOC1=O [3O-C12 HSL] | completely dark phenotype | competitive | inhibited light production to basal levels; also recorded: reduced light production to basal levels | – | – | – | – | – | – | – | – |
| CCCCCCCC(=O)N[C@H]1CCOC1=O [C8 HSL] | – | behaved similarly to 3O-C12 HSL | – | retained the capability to detect | 3 | light production was induced | most sensitive | most potent agonist | only modest detection | 10 | produced maximal light |
